Data as given in US6723747B2, “Substituted 6H-DiBenzo[c,h]chromenes as estrogenic agents” (Wyeth, priority 2001, dated 2004).

Key:
Lewis rats = test: Lewis rat adjuvant-induced arthritis, treatment test procedure; format: in vivo; conditions: for joint inflammation score (maximal score per day 12): 10 mg/kg sc daily, treatment begun Day 8 after adjuvant
HLA-B27 rats = test: HLA rat test procedure for inflammatory bowel disease; format: in vivo; conditions: for stool character, group's average score: 10 mg/kg oral daily, 3=diarrhea, 2=soft, 1=normal stool
Experimental: Representative compounds of the invention were evaluated in the HLA rat standard pharmacological test procedure which emulates inflammatory bowel disease in humans. The following briefly describes the procedure used and results obtained. Male HLA-B27 rats were obtained from Taconic and provided unrestricted access to food (PMI Lab diet 5001) and water. Rats were dosed once daily (orally) with either vehicle (2% tween-80/0.5% methylcellulose) or Example 1d (10 mg/kg) for 26 days. Stool quality was observed daily and graded according to the following scale: Diarrhea=3; soft stool=2; normal stool=1. […] At the end of the study, serum was collected and stored at −70° C. A section of colon was prepared for histological analysis and an additional segment was analyzed for myeloperoxidase activity.
Histological analysis. Colonic tissue was immersed in 10% neutral buffered formalin. Each specimen of colon was separated into four samples for evaluation. The formalin-fixed tissues were processed in a Tissue Tek vacuum infiltration processor (Miles, Inc; West Haven, Conn.) for paraffin embedding. The samples were sectioned at 5 μm and then stained with hematoxylin and eosin (H&E) for blinded histologic evaluations using a scale modified after Boughton-Smith. After the scores were completed the samples were unblinded, and data were tabulated and analyzed by ANOVA linear modeling with multiple mean comparisons. Sections of colonic tissue were evaluated for several disease indicators and given relative scores.

[1] = tarsal joints, 10 mg/kg, vehicle 2.58 ± 0.38

N#Cc1cc2c(c3ccc(O)cc13)OCc1cc(O)ccc1-2 [Example 1d, 2,8-Dihydroxy-6H-dibenzo[c,h]chromene-12-carbonitrile]
joint inflammation score (maximal score per day 12) (Lewis rats; day 1, vehicle 10.83): 11.33 | joint inflammation score (maximal score per day 12) (Lewis rats; day 2, vehicle 11.00): 11.15 | joint inflammation score (maximal score per day 12) (Lewis rats; day 3, vehicle 10.83): 11.33 | joint inflammation score (maximal score per day 12) (Lewis rats; day 4, vehicle 11.33): 9.83 | joint inflammation score (maximal score per day 12) (Lewis rats; day 5, vehicle 11.50): 8.83 | joint inflammation score (maximal score per day 12) (Lewis rats; day 6, vehicle 11.50): 7.83 | joint inflammation score (maximal score per day 12) (Lewis rats; day 7, vehicle 11.50): 6.16 | joint inflammation score (maximal score per day 12) (Lewis rats; day 8, vehicle 11.50): 5.00 | joint inflammation score (maximal score per day 12) (Lewis rats; day 9, vehicle 11.00): 4.33 | joint inflammation score (maximal score per day 12) (Lewis rats; day 10, vehicle 11.00): 2.66 | joint inflammation score (maximal score per day 12) (Lewis rats; day 11, vehicle 10.66): 1.83 | joint inflammation score (maximal score per day 12) (Lewis rats; day 12, vehicle 10.66): 1.83 | joint inflammation score (maximal score per day 12) (Lewis rats; day 13, vehicle 10.50): 2.66 | joint inflammation score (maximal score per day 12) (Lewis rats; day 14, vehicle 9.83): 2.66 | joint inflammation score (maximal score per day 12) (Lewis rats; day 15, vehicle 8.10): 2.00 | joint inflammation score (maximal score per day 12) (Lewis rats; day 16, vehicle 7.35): 2.00 | joint inflammation score (maximal score per day 12) (Lewis rats; day 17, vehicle 6.50): 1.50 | Tidemark Integrity (0-1), Mankin score (Lewis rats; tarsal joints, 10 mg/kg, vehicle 0): 0 | Pannus (0-1), synovitis histological score, mean ± SD (Lewis rats; tarsal joints, 10 mg/kg, vehicle 1.00 ± 0.89): 0.08 ± 0.20 | Fibroplasia (0-3), synovitis histological score, mean ± SD (Lewis rats; tarsal joints, 10 mg/kg, vehicle 1.75 ± 0.42): 0.75 ± 0.42 | Saffranin-O/Fast Green Staining (0-4), Mankin score, mean ± SD (Lewis rats; tarsal joints, 10 mg/kg, vehicle 2.50 ± 0.32): 1.25 ± 0.61 | Cartilage Cells (0-3), Mankin score, mean ± SD (Lewis rats; [1]): 0.58 ± 0.38 | Synovial Structure (0-3), synovitis histological score, mean ± SD (Lewis rats; [1]): 1.75 ± 0.52 | Cartilage Structure (0-6), Mankin score, mean ± SD (Lewis rats; tarsal joints, 10 mg/kg, vehicle 2.83 ± 0.26): 1.67 ± 0.41 | Inflammatory Cells (0-3), synovitis histological score, mean ± SD (Lewis rats; tarsal joints, 10 mg/kg, vehicle 2.92 ± 0.20): 1.33 ± 0.41 | Total Mankin Score (0-14), mean ± SD (Lewis rats; tarsal joints, 10 mg/kg, vehicle 7.92 ± 0.74): 3.50 ± 1.27 | Total Synovitis Score (0-10), mean ± SD (Lewis rats; tarsal joints, 10 mg/kg, vehicle 8.25 ± 1.57): 3.92 ± 1.36 | stool quality (HLA-B27 rats; 10 mg/kg orally once daily for 26 days): stool quality improved | stool character, group's average score (HLA-B27 rats; day 1, vehicle 1): 1 | stool character, group's average score (HLA-B27 rats; day 2, vehicle 1): 1 | stool character, group's average score (HLA-B27 rats; day 3, vehicle 1): 1 | stool character, group's average score (HLA-B27 rats; day 4, vehicle 1.25): 1 | stool character, group's average score (HLA-B27 rats; day 5, vehicle 2.5): 1.5 | stool character, group's average score (HLA-B27 rats; day 6, vehicle 2.75): 1.25 | stool character, group's average score (HLA-B27 rats; day 7, vehicle 2.75): 1.25 | stool character, group's average score (HLA-B27 rats; day 8, vehicle 2.75): 1 | stool character, group's average score (HLA-B27 rats; day 9, vehicle 3): 1.25 | stool character, group's average score (HLA-B27 rats; day 10, vehicle 3): 1 | stool character, group's average score (HLA-B27 rats; day 11, vehicle 2.75): 1.25 | stool character, group's average score (HLA-B27 rats; day 12, vehicle 2.75): 1.25 | stool character, group's average score (HLA-B27 rats; day 13, vehicle 2.75): 1.25 | stool character, group's average score (HLA-B27 rats; day 14, vehicle 2.75): 1.25 | stool character, group's average score (HLA-B27 rats; day 15, vehicle 2.75): 1 | stool character, group's average score (HLA-B27 rats; day 16, vehicle 3): 1 | stool character, group's average score (HLA-B27 rats; day 17, vehicle 2.75): 1 | stool character, group's average score (HLA-B27 rats; day 18, vehicle 2.75): 1 | stool character, group's average score (HLA-B27 rats; day 19, vehicle 2.75): 1 | stool character, group's average score (HLA-B27 rats; day 22, vehicle 3): 1 | stool character, group's average score (HLA-B27 rats; day 23, vehicle 3): 1 | stool character, group's average score (HLA-B27 rats; day 24, vehicle 3): 1 | stool character, group's average score (HLA-B27 rats; day 25, vehicle 3): 1 | stool character, group's average score (HLA-B27 rats; day 26, vehicle 3): 1 | measurements of tissue injury in colon (HLA-B27 rats; histological analysis, 10 mg/kg orally): effective in reducing several measurements of tissue injury | Fibrosis (0-2), colon histological score, mean ± SD (HLA-B27 rats; treated orally for 4 weeks, 10 mg/kg, vehicle 1.06 ± 0.32): 0.13 ± 0.14 | Ulceration (0-2), colon histological score, mean ± SD (HLA-B27 rats; treated orally for 4 weeks, 10 mg/kg, vehicle 1.44 ± 0.66): 0.19 ± 0.13 | Lesion depth (0-2), colon histological score, mean ± SD (HLA-B27 rats; treated orally for 4 weeks, 10 mg/kg, vehicle 1.56 ± 0.63): 0.19 ± 0.13 | Inflammation (0-3), colon histological score, mean ± SD (HLA-B27 rats; treated orally for 4 weeks, 10 mg/kg, vehicle 2.88 ± 0.14): 1.38 ± 0.43 | Total score, colon histological score, mean ± SD (HLA-B27 rats; treated orally for 4 weeks, 10 mg/kg, vehicle 6.94 ± 1.51): 1.88 ± 0.14
